Results taken from US20260071239A1, “COMPOSITIONS AND METHODS FOR IMPROVED CELL CULTURE EFFICIENCY” (Amyris, Inc., priority 2022, published 2026).
≈ marks a conversion by molar mass, not a printed value.

System: host cells
Assay: Inhibition of host cells by myrcene during fermentation
Format: cell-based
Settings: host cells in fermentation; read-out: IC50 (inhibitory to host cells)

Molecule `C=CC(=C)CCC=C(C)C` [Myrcene, myrcene] has an IC50 of 50 to 100 mg/L (≈ 367 to 734 µM).
